Assay results: paper PMC11249646, “Small-Molecule Disruptors of the Interaction between Calcium- and Integrin-Binding Protein 1 and Integrin αIIbβ3 as Novel Antiplatelet Agents” (ACS Pharmacology & Translational Science, 2024)
Where two headings read alike, the source gives them in different places.

Columns and labels:
[1] = molecular target: T1, CIB1 and αIIb interaction (CIB1-GST : F-αIIb peptide) (Homo sapiens, UniProt Q99828); experiment: FP assay, 1536-well qHTS format (primary and confirmatory screen); format: binding; details: for CONFIRMATORY SCREEN Curve Class / Curve Class (confirmatory screen): qHTS curve class
T1 construct: made in house; host or cells: BL-21 plus RIL cells (E. coli)
T1 sequence (Q99828 1-191): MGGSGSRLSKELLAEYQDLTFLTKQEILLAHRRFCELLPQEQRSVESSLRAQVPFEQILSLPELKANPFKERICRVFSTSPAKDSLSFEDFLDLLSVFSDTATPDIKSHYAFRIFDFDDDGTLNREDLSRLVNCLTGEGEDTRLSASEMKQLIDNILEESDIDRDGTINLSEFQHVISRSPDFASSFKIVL

[2] = molecular target: T2, GST-CIB1 : F-scrambled peptide (Homo sapiens, UniProt Q99828); experiment: FP scrambled-peptide counter screen, 1536-well format; format: binding; details: for COUNTERSCREEN Curve Class / Curve Class (counterscreen): qHTS curve class
T2 construct: made in house; host or cells: BL-21 plus RIL cells (E. coli)
T2 sequence (Q99828 1-191): T1 sequence (Q99828 1-191)

[3] = qHTS primary screen hits, Table S2, negative = inhibition
[4] = qHTS primary screen hits, Table S2, negative sign = inhibitory curve
[5] = qHTS primary screen hits, Table S2, read-out: IC50
[6] = Table S3, confirmatory screen, a negative sign marks inhibitory curves
[7] = Table S3, confirmatory screen, negative = inhibition
[8] = qHTS primary screen hits, Table S2, negative sign = inhibitory curve, several classes where COUNT > 1
[9] = Table S3, counterscreen, a negative sign marks inhibitory curves
[10] = Table S3, counterscreen, negative = inhibition
[11] = Table S3, confirmatory screen, YES/NO call
[12] = Table S3, confirmatory screen, read-out: IC50 [μM] (confirmatory screen)
[13] = Table S3, counterscreen, read-out: IC50 [μM] (counterscreen)
[14] = confirmatory screen, negative sign = inhibitory curve
[15] = confirmatory screen, read-out: IC50 [μM] (confirmatory screen)
[16] = counterscreen, negative sign = inhibitory curve
[17] = counterscreen, read-out: IC50 [μM] (counterscreen)
[18] = qHTS FP screen hits, Table S2, negative = inhibition
[19] = qHTS FP screen hits, Table S2, one class per curve where COUNT > 1, negative sign = inhibitory curve
[20] = qHTS FP screen hits, Table S2, read-out: IC50
[21] = scrambled-peptide counterscreen

O=C(O)C(F)(F)F.O=C1CCCC2=C1C(c1cccnc1Br)N=C(Nc1nc3ccccc3o1)N2 (centres unmarked) [NCGC00189281-01]
CONFIRMATORY SCREEN Efficacy (%) ([1]; confirmatory screen): -31% | CONFIRMATORY SCREEN Curve Class ([1]; confirmatory screen): 4 | Efficacy (%) [1, 3]: -26% | Curve Class [1, 4]: -2.4 | IC50 [1, 5]: 25.1 µM | COUNTERSCREEN Efficacy (%) ([2]; counterscreen): 0% | COUNTERSCREEN Curve Class ([2]; counterscreen): 4

CCOc1ccc(CCNC(=O)c2ccc(N3N=C(C)CC3=O)cc2)cc1OCC.O=C(O)C(F)(F)F [NCGC00241439-01]
Curve Class (confirmatory screen) [1, 6]: 4 | Efficacy (%) (confirmatory screen) [1, 7]: -41% | Efficacy (%) [1, 3]: -42% | Curve Class [1, 8]: -1.2 | IC50 [1, 5]: 22.4 µM | Curve Class (counterscreen) [2, 9]: 4 | Efficacy (%) (counterscreen) [2, 10]: -33%

O=C(O)C(F)(F)F.O=C1CC(c2ccccc2Cl)c2sc(N3CCOCC3)nc2N1 (centres unmarked) [NCGC00488256-02]
Confirm? (confirmatory screen) [1, 11]: YES | Curve Class (confirmatory screen) [1, 6]: -2.4 | Efficacy (%) (confirmatory screen) [1, 7]: -49% | IC50 [1, 12]: 50.1 µM | Efficacy (%) [1, 3]: -72% | Curve Class [1, 8]: -2.2 | IC50 [1, 5]: 79.4 µM | Curve Class (counterscreen) [2, 9]: -2.2 | Efficacy (%) (counterscreen) [2, 10]: -77% | IC50 [2, 13]: 31.6 µM

CN1CCN(c2ccc(Nc3nn4c(=O)c5ccccc5nc4s3)cc2)CC1.O=C(O)C(F)(F)F [NCGC00186454-01]
Efficacy (%) (confirmatory screen) ([1]; confirmatory screen): -50% | Confirm? (confirmatory screen) ([1]; confirmatory screen, YES/NO): YES | Curve Class (confirmatory screen) [1, 14]: -2.2 | IC50 [1, 15]: 50.1 µM | Efficacy (%) [1, 3]: -32% | Curve Class [1, 4]: -1.4 | IC50 [1, 5]: 12.6 µM | Efficacy (%) (counterscreen) ([2]; counterscreen): -37% | Curve Class (counterscreen) [2, 16]: -2.4 | IC50 [2, 17]: 79.4 µM

NC(=O)C1CCN(c2ncc(Br)s2)CC1 [NCGC00184919-01]
Confirm? (confirmatory screen) [1, 11]: YES | Curve Class (confirmatory screen) [1, 6]: -2.1 | Efficacy (%) (confirmatory screen) [1, 7]: -112% | IC50 [1, 12]: 50.1 µM | Efficacy (%) [1, 18]: -123% | Curve Class [1, 19]: -2.1 | IC50 [1, 20]: 39.8 µM | Curve Class (counterscreen) [2, 9]: -2.1 | Efficacy (%) (counterscreen) [2, 10]: -127% | IC50 [2, 13]: 39.8 µM

Oc1ccc2c(-c3c(-c4ccccn4)nn4c3CCC4)ccnc2c1 [NCGC00408881-01]
Efficacy (%) (confirmatory screen) ([1]; confirmatory screen): -42% | Confirm? (confirmatory screen) ([1]; confirmatory screen, YES/NO): YES | Curve Class (confirmatory screen) [1, 14]: -2.2 | IC50 [1, 15]: 39.8 µM | Efficacy (%) [1, 18]: -36% | Curve Class [1, 19]: -1.2 | IC50 [1, 20]: 28.2 µM | Efficacy (%) (counterscreen) ([2]; counterscreen): -32% | Curve Class (counterscreen) [2, 16]: -2.2 | IC50 [2, 17]: 50.1 µM

CC(=O)Oc1cccc2c1C(=O)c1c(OC(C)=O)cc(C(=O)O)cc1C2=O [NCGC00018274-05]
CONFIRMATORY SCREEN Confirm? ([1]; confirmatory screen, YES/NO call): YES | CONFIRMATORY SCREEN Curve Class [1, 14]: -1.4 | CONFIRMATORY SCREEN Efficacy (%) ([1]; confirmatory screen, negative = inhibition): -50% | IC50 ([1]; confirmatory screen, read-out: CONFIRMATORY SCREEN IC50): 11.2 µM | Efficacy (%) [1, 3]: -39% | Curve Class [1, 8]: -2.4 | IC50 [1, 5]: 39.8 µM | COUNTERSCREEN Efficacy (%) [2, 21]: -53% | COUNTERSCREEN Confirm? ([2]; scrambled-peptide counterscreen, YES/NO call): YES | COUNTERSCREEN Curve Class [2, 21]: -2.4 | IC50 ([2]; scrambled-peptide counterscreen, read-out: COUNTERSCREEN IC50): 50.1 µM

CS(=O)(=O)c1ccc(C(=O)OCC(=O)N2CCC(Cc3ccccc3)CC2)cc1[N+](=O)[O-] [NCGC00188541-01]
CONFIRMATORY SCREEN Efficacy (%) ([1]; confirmatory screen): -18% | CONFIRMATORY SCREEN Curve Class ([1]; confirmatory screen): 4 | Efficacy (%) [1, 18]: -25% | IC50 [1, 20]: 0.7 µM | COUNTERSCREEN Efficacy (%) ([2]; counterscreen): -22% | COUNTERSCREEN Curve Class ([2]; counterscreen): 4
